Patent publication US9617282B2, “Macrocyclic compounds as IRAK4 inhibitors for the treatment of inflammatory diseases” (BIOGEN MA INC., priority 2013, dated 2017)
pEC50, pIC50: −log10 of the molar value.

How the values were obtained:
IRAK4 = IRAK4 (Homo sapiens (Human), UniProt Q9NWZ3); assay: IRAK-4 biochemical kinase assay, AlphaScreen format; details: 1 nM IRAK4, 1.6 μM peptide, 10 μM ATP, 3.5 h at RT; class symbols
In short: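 AlphaScreen read-out: streptavidin beads bind the biotinylated peptide and protein A beads bind the anti-phosphothreonine antibody, so energy transfer reports phosphorylation of the peptide. The kinase is human IRAK-4.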

A549 cells = assay: Cell-based assay, IL-6 ELISA quantification in IL-1 beta stimulated A549 cells; details: 2 ng/ml human IL-1 beta overnight, class symbols, read-out: Celluar Data EC50
Method: The cell-based assays is based on IL-6 ELISA quantification. Briefly, A549 cells are cultured in DMEM with 10% FBS medium. When cells reach 80% confluence they are trypsin treated and seeded in 96-well plate at 2.5×10^4 cells/well. Then, 20 ul of compound serial dilutions (starting at 10 uM, 10 points) are added to the cell plate; incubate for 1 hour at 37 C and stimulated with 2 ng/ml human IL-1 beta 37 C overnight. The next day 100 ul of cell supernatant per well are analyzed on a Human IL-6 Quantikine ELISA kit from R&D Systems.

IRAK4, sequence (Q9NWZ3 whole entry, species assumed): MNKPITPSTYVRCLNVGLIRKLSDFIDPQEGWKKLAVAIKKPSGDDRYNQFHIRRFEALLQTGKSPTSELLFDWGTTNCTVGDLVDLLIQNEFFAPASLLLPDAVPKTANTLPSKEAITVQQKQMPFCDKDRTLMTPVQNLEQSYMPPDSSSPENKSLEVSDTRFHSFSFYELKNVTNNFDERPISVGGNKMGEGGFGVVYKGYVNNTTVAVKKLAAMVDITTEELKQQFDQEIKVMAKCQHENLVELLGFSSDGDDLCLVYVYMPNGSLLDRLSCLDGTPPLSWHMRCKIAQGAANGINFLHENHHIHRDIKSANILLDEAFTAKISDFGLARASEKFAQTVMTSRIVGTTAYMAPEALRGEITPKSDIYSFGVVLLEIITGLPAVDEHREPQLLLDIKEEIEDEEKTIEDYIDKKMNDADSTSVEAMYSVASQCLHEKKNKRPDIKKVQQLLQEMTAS

Row | pIC50 (IRAK4) | pEC50 (A549 cells) | Structure (SMILES)
1 | > 6.00 | < 5.00 | CC(C)(C)OC(=O)N1CCN(CCn2ncc3c2C(=O)NCCOCCOc2cc(ccn2)-c2nc(cs2)C(=O)N3)CC1 [Example 108]
2 | > 7.00 | > 5.00 | CN(C)CCn1cc2c(n1)C(=O)NCCOCCNc1cc(ccn1)-c1nc(cs1)C(=O)N2 [Example 117]
3 | > 7.00 | > 6.00 | O=C1Nc2cn(CCN3CCOCC3)nc2C(=O)NCCOCCNc2cc(ccn2)-c2nc1cs2 [Example 118]
4 | > 6.00 | < 5.00 | O=C1Nc2cn(CC3CCNCC3)nc2C(=O)NCCOCCOc2cc(ccn2)-c2nc1cs2 [Example 160]
5 | > 7.00 | > 6.00 | Cn1cc2c(n1)C(=O)NCCOCCCn1cc(cn1)-c1nc(cs1)C(=O)N2 [Example 135]
6 | > 5.00 | < 5.00 | O=C(O)Cn1cc2c(n1)C(=O)NCCOCCOc1cc(ccn1)-c1nc(cs1)C(=O)N2 [Example 146]
7 | > 7.00 | < 5.00 | CC(C)(C)OC(=O)N1CCN(CCn2cc3c(n2)C(=O)NCCOCCOc2cc(ccn2)-c2nc(cs2)C(=O)N3)CC1 [Example 114]
8 | > 7.00 | < 5.00 | O=C1Nc2cn(C3CCOCC3)nc2C(=O)NCCOCCc2cc(ccn2)-c2nc1cs2 [Example 134]
9 | > 7.00 | < 5.00 | O=C1Nc2cn(CCCO)nc2C(=O)NCCOCCOc2cc(ccn2)-c2nc1cs2 [Example 152]
10 | > 7.00 | > 5.00 | Cn1cc2c(n1)C(=O)NCCOCCCCc1cc(ccn1)-c1nc(cs1)C(=O)N2 [Example 217]
11 | > 7.00 | > 6.00 | O=C1Nc2cn(C3CCOCC3)nc2C(=O)NCCCCNc2cc(ccn2)-c2nc1cs2 [Example 132]
12 | > 7.00 | > 6.00 | Cn1cc2c(n1)C(=O)NCCOCCNc1cc(ccn1)-c1nc(cs1)C(=O)N2 [Compound 45]
13 | > 7.00 | > 5.00 | CN1CCN(CCn2cc3c(n2)C(=O)NCCOCCNc2cc(ccn2)-c2nc(cs2)C(=O)N3)CC1 [Example 143]
14 | > 6.00 | > 5.00 | Cn1cc2c(n1)C(=O)NCCOCCc1cc(ccn1)-c1nc(cs1)C(=O)N2 [Example 133]
15 | > 7.00 | > 6.00 | Cn1cc2c(n1)C(=O)NCCCCCCNc1cc(ccn1)-c1nc(co1)C(=O)N2 [Compound 32]
16 | > 7.00 | > 5.00 | CC(C)(C)OC(=O)N1CCC(Cn2cc3c(n2)C(=O)NCCOCCOc2cc(ccn2)-c2nc(cs2)C(=O)N3)CC1 [Example 159]
17 | > 7.00 | > 6.00 | Cn1cc2c(n1)C(=O)NCCC/C=C/CCCNc1cc(ccn1)-c1nc(co1)C(=O)N2 [Example 140]
18 | > 7.00 | > 6.00 | Cn1cc2c(n1)C(=O)NCCCCCCCCNc1cc(ccn1)-c1nc(co1)C(=O)N2 [Compound 29]
19 | > 6.00 | < 5.00 | CN(C)CCn1cc2c(n1)C(=O)NCCOCCOc1cc(ccn1)-c1nc(cs1)C(=O)N2 [Example 111]
20 | > 7.00 | < 5.00 | O=C1Nc2ccccc2OCCCCOCc2cc(ccn2)-c2nc1co2 [Compound 4]
21 | > 5.00 | < 5.00 | O=C1Nc2cnn(CCN3CCNCC3)c2C(=O)NCCOCCOc2cc(ccn2)-c2nc1cs2 [Example 109]
22 | > 7.00 | > 5.00 | Cn1cc2c(n1)C(=O)NCCOCCOc1cc(ccn1)-c1nc(cs1)C(=O)N2 [Compound 43]
23 | > 7.00 | < 5.00 | O=C1Nc2cn(CCN3CCCCC3)nc2C(=O)NCCOCCOc2cc(ccn2)-c2nc1cs2 [Example 116]

Row | pIC50 (IRAK4) | pEC50 (A549 cells) | Structure (SMILES)
24 | > 6.00 | < 5.00 | O=C1CCNC(=O)c2csc(n2)-c2ccnc(c2)OCCOCCN1 [Example 126]
25 | > 6.00 | < 5.00 | O=C(O)CCn1cc2c(n1)C(=O)NCCOCCOc1cc(ccn1)-c1nc(cs1)C(=O)N2 [Example 149]
26 | > 7.00 | > 5.00 | Cn1cc2c(n1)C(=O)NCCOCCCc1cc(ccn1)-c1nc(cs1)C(=O)N2 [Compound 48]
27 | > 7.00 | > 5.00 | O=C1Nc2cn(C3CCOCC3)nc2C(=O)NCCCOCCOc2cc(ccn2)-c2nc1cs2 [Example 121]
28 | > 7.00 | > 6.00 | O=C1Nc2ccccc2C(=O)NCCOCCOc2cc(ccn2)-c2nc1cs2 [Example 127]
29 | > 7.00 | < 5.00 | CCOC(=O)CCn1cc2c(n1)C(=O)NCCOCCOc1cc(ccn1)-c1nc(cs1)C(=O)N2 [Example 150]
30 | > 7.00 | < 5.00 | CN(C)CCNC(=O)c1ccc2c(c1)NC(=O)c1csc(n1)-c1ccnc(c1)NCCCCCO2 [Compound 16]
31 | > 7.00 | > 6.00 | Cn1cc2c(n1)C(=O)NCCCCNc1cc(ccn1)-c1nc(cs1)C(=O)N2 [Example 131]
32 | > 7.00 | > 5.00 | O=C1Nc2cn(CCN3CCNCC3)nc2C(=O)NCCOCCOc2cc(ccn2)-c2nc1cs2 [Example 115]
33 | > 7.00 | < 5.00 | CN1CCC(CCn2cc3c(n2)C(=O)NCCOCCOc2cc(ccn2)-c2nc(cs2)C(=O)N3)CC1 [Example 153]
34 | > 7.00 | > 6.00 | Cn1cc2c(n1)C(=O)NCCCCOc1cc(ccn1)-c1nc(cs1)C(=O)N2 [Example 91]
35 | > 7.00 | < 5.00 | CC(C)(C)OC(=O)Cn1cc2c(n1)C(=O)NCCOCCOc1cc(ccn1)-c1nc(cs1)C(=O)N2 [Example 137]
36 | > 7.00 | > 5.00 | O=C1Nc2cn(C3CCOCC3)nc2C(=O)NC2CC(=O)N(CCCc3cc(ccn3)-c3nc1cs3)C2=O (stereo not drawn) [Example 200]
37 | > 7.00 | < 5.00 | CN1CCCc2cc(ccn2)-c2nc(cs2)C(=O)Nc2cn(C3CCOCC3)nc2C(=O)NCC1 [Example 169]
38 | > 7.00 | > 5.00 | O=C1Nc2ccccc2OCCCCCCn2cc(cn2)-c2nc1co2 [Compound 7]
39 | > 7.00 | > 5.00 | Cn1cc2c(n1)C(=O)NCCCCCc1cc(ccn1)-c1nc(cs1)C(=O)N2 [Example 96]
40 | > 7.00 | < 5.00 | CC(C)(C)OC(=O)N1CCC(CCn2cc3c(n2)C(=O)NCCOCCOc2cc(ccn2)-c2nc(cs2)C(=O)N3)CC1 [Example 154]
41 | > 7.00 | > 5.00 | O=C1NC[C@@H]2CC[C@@H](C2)OCCCNc2cc(ccn2)-c2nc1cs2 [Example 83]
42 | > 7.00 | > 6.00 | O=C1Nc2cn(C3CCOCC3)nc2C(=O)NCCCCCc2cc(ccn2)-c2nc1cs2 [Example 95]
43 | > 7.00 | > 6.00 | O=C1Nc2ccccc2OC(CO)CCCCNc2cc(ccn2)-c2nc1co2 (stereo not drawn) [Compound 12]
44 | > 7.00 | > 6.00 | O=C1Nc2cn(CCN3CCCCC3)nc2C(=O)NCCOCCNc2cc(ccn2)-c2nc1cs2 [Example 119]
45 | > 7.00 | < 5.00 | CNC(=O)Cn1cc2c(n1)C(=O)NCCOCCOc1cc(ccn1)-c1nc(cs1)C(=O)N2 [Example 161]
